Data from BindingDB's records for patent US20250243194 (Adorx Therapeutics, 2025).

Assays:
Experiment in all cases: Adenosine Receptor Time-Resolved Fluorescence Resonance Energy Transfer (TRFRET) Binding Assay
Adenosine receptor A2b = target: T1, Adenosine receptor A2b (Homo sapiens, UniProt P29275)
T1 sequence (P29275 whole entry): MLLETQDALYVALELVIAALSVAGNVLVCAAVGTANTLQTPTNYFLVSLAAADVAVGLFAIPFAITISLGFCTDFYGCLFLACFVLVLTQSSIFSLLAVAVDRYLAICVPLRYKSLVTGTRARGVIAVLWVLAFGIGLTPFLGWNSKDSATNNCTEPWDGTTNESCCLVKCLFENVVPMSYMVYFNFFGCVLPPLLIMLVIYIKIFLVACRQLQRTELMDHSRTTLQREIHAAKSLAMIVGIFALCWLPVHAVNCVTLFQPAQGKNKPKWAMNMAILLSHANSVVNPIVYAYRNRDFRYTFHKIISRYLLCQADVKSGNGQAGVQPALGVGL
Experimental: (§1) All FRET binding experiments were conducted at room temperature in white 384-well plates, in assay binding buffer containing 1× LabMed (Cisbio, France), 100 μg/mL saponin, 1% DMSO and 0.02% pluronic acid. Binding of the fluorescently labelled Adenosine receptor antagonist XAC (CA200645, FRET acceptor) to terbium-labelled A1, A2a, A2b and A3 adenosine receptors (FRET donors) was detected by time-resolved FRET due to the close proximity of the donor and acceptor in a binding event. To investigate the ability of unlabelled test compounds to bind to Adenosine A1, A2a, A2b and A3 receptors, dose response curves were constructed that determined the ability of a range of concentrations to inhibit the binding of 30 nM CA200645 to the A2b receptor and 100 nM CA200645 to the A1, A2a, and A3 receptor.Serial dilution (1:3 dilutions) of test compounds in neat DMSO and transfer of a 400 nL sample of test compound into the assay plate was carried out using the Mosquito (TTP Labtech, UK). The compound samples were incubated for 2 hours at room temperature with a fixed concentration of CA200645 defined for each receptor (see above) and CHO cell membranes containing the human Adenosine A1 (0.5 μg/well), A2a (0.3 μg/well), A2b (1 μg/well) or A3 (1 μg/well) receptor in 40 μL of assay buffer. Total and non-specific binding of CA200645 was determined in the absence and presence of 10 μM XAC, respectively. Following 2 hours incubation, the level of CA200645 binding was detected on a Pherastar FSX (BMG Labtech, Germany) using standard TR-FRET settings.

Adenosine receptor A1 = target: T2, Adenosine receptor A1 (Homo sapiens, UniProt P30542)
T2 sequence (P30542 whole entry): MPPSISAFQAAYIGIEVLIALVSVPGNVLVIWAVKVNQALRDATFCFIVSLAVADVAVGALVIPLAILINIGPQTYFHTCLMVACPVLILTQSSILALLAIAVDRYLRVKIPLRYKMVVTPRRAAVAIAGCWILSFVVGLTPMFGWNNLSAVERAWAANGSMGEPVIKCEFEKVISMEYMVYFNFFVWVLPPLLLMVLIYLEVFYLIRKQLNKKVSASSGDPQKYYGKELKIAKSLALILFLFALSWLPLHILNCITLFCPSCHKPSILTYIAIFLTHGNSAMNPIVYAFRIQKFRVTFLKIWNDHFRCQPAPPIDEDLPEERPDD
Experimental: as §1

Adenosine receptor A2a = Adenosine receptor A2a (Homo sapiens, UniProt P29274)
Experimental: as §1

Adenosine receptor A3 = target: T3, Adenosine receptor A3 (Homo sapiens, UniProt P0DMS8)
T3 sequence (P0DMS8 whole entry): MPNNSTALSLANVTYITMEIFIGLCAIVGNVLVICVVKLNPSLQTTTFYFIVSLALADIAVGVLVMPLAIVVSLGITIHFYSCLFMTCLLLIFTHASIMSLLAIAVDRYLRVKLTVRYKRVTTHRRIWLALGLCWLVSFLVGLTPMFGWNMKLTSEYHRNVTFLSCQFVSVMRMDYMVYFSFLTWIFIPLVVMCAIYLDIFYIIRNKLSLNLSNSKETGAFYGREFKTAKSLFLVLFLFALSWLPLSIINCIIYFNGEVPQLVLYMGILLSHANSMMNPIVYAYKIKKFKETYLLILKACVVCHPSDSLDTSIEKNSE
Experimental: as §1

Sequence of Adenosine receptor A2a (P29274 whole entry): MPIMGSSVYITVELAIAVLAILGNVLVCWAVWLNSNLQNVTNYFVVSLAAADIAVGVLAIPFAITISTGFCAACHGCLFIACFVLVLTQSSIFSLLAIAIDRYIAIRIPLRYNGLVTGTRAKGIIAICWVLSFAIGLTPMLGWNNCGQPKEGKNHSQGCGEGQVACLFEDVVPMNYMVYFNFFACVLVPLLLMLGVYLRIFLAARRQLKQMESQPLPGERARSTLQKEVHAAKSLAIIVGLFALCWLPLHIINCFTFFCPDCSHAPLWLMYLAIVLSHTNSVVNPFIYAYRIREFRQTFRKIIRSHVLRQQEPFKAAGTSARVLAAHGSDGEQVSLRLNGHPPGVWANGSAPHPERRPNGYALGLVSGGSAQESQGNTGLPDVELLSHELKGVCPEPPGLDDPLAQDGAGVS

Q: Which results are given for Cc1ncnc2ccc(-c3sc(NC(=O)N4CCC(N(C)C)CC4)nc3-c3cccc(C#N)c3)cc12 [US20250243194, Example 7.6]?
A: Ki (Adenosine receptor A2b): 2.5 nM; Ki (Adenosine receptor A1): 62 nM; Ki (Adenosine receptor A2a): 0.55 nM

Q: Which results are given for Cc1ncnc2ccc(-c3sc(NC(=O)N4C[C@@H]5OCCN(C)[C@@H]5C4)nc3-c3cccc(C#N)c3)cc12 [US20250243194, Example 7.20]?
A: Ki (Adenosine receptor A2b): 1.4 nM; Ki (Adenosine receptor A1): 57 nM; Ki (Adenosine receptor A2a): 0.2 nM

Q: What does the source list for Cc1ncnc2ccc(-c3sc(NC(=O)N4CCNCC4)nc3-c3cccc(C#N)c3)cc12 [US20250243194, Example 7.21]?
A: Ki (Adenosine receptor A2b): 1.6 nM; Ki (Adenosine receptor A1): 9 nM; Ki (Adenosine receptor A2a): 0.3 nM

Q: With Cc1ncnc2ccc(-c3sc(NC(=O)N4CCN(C)CC4)nc3-c3cccc(C#N)c3)cc12 [US20250243194, Example 7.22] as the compound, how does the Ki (Adenosine receptor A2b) read?
A: The Ki was 3 nM.

Q: What about the Ki (Adenosine receptor A1) of the same compound?
A: The Ki was 20 nM.

Q: What about the Ki (Adenosine receptor A2a) of the same compound?
A: The Ki was 0.42 nM.

Q: Cc1ccnc2ccc(-c3sc(NC(=O)N4CC5(COC5)C4)nc3-c3cccc(C#N)c3)cc12 [US20250243194, Example 11] was tested. Which Ki (Adenosine receptor A2b) did it give?
A: Its Ki is 0.5 nM.

Q: And the Ki (Adenosine receptor A1)?
A: The Ki was 0.4 nM.

Q: And the Ki (Adenosine receptor A2a)?
A: Its Ki is 0.04 nM.

Q: For COc1ncnc2ccc(-c3sc(NC(=O)N4CC5(COC5)C4)nc3-c3cccc(C#N)c3)cc12 [US20250243194, Example 12], which Ki (Adenosine receptor A2b) is on record?
A: The Ki was 0.8 nM.

Q: And the Ki (Adenosine receptor A1)?
A: Its Ki is 0.2 nM.

Q: And the Ki (Adenosine receptor A2a)?
A: Its Ki is 0.17 nM.

Q: For Cn1cc(-c2sc(NC(=O)N3CC4(COC4)C3)nc2-c2cccc(C#N)c2)c2cccnc21 [US20250243194, Example 16], which Ki (Adenosine receptor A2b) is on record?
A: Its Ki is 9.8 nM.

Q: And the Ki (Adenosine receptor A1)?
A: The Ki was 122 nM.

Q: And the Ki (Adenosine receptor A3)?
A: Its Ki is 2130 nM.

Q: And the Ki (Adenosine receptor A2a)?
A: Its Ki is 5.17 nM.
